This note sets out measurements from patent US20150225377A1, “VEGFR3 INHIBITORS” (CANCER THERAPEUTICS CRC PTY LIMITED, priority 2012, published 2015).

The target in assay [1] is T1, VEGFR3 cytoplasmic domain (Homo sapiens, UniProt P35916).
T1 construct: VEGFR3 cytoplasmic domain (amino acids 798-1298) was purchased as N-terminal GST-fusion protein; GST (N); purchased
In words: VEGFR3 biochemical assay (AlphaScreen). Particulars: GST-VEGFR3 cytoplasmic domain, 500 μM ATP (modified form: His-fusion, 1 μM ATP). The method, then:
Compounds of the invention may be tested for in vitro activity in the following assay: A biotin labelled peptide is used as substrate (amino acid sequence: Biotin-[…]NH2). VEGFR3 cytoplasmic domain (amino acids 798-1298) was purchased as N-terminal GST-fusion protein (“the enzyme”). The 15 μL assay reactions are run in Greiner brand white 384-well low volume plates. All reactions contained 10 mM HEPES pH 7.4, 10 mM MgCl2, 0.01% (v/v) Tween-20, 50 μM Na3VO4, 0.01% (w/v) albumin from chicken egg white, 1 mM Dithiothreitol, 111 nM peptide substrate, 500 μM ATP, and 3.8 ng/reaction enzyme, with the enzyme being omitted from negative control reactions. Compounds were added in a volume of […] from dilution series prepared in DMSO, positive and negative control reactions receiving the same volume DMSO without compound. The plates were sealed with adhesive seals and incubated for 90 minutes at 30 degree Celsius. The reactions were stopped with the detection reagents added at the same time as follows: Product formation was quantified as amplified luminescence between PerkinElmer AlphaScreen™ beads, using Streptavidin-coated donor and anti-phosphotyrosine (P-Tyr-100) acceptor beads. To each reaction, 5 μL containing 10 mM HEPES pH 7.4, 25 mM NaCl, 100 mM EDTA, 0.01% (v/v) Tween-20, and 6.25 μg/mL of each bead type were added. Plates were incubated for 6 hours before being read on a PerkinElmer EnVision™ plate reader in HTS Alphascreen™ mode. IC50 values were obtained by calculating percent inhibition (% I) for each reaction relative to controls on the same plate (% I=(I-CN)/(CP-CN) where CN/CP are the averages of the negative/positive reactions, respectively), then fitting the % I data vs. compound concentration [I] to % I=(A+((B−A)/(1+((C/[I])̂D)))) where A is the lower asymptote, B is the upper asymptote, C is the IC50 value, and D is the slope factor.
The above assay was also run in a modified form in some cases (indicated below with *). In these cases, VEGFR3 cytoplasmic domain (amino acids 818-1177, lacking 949-1002 of UniProt accession number P35916) was expressed and purified as N-terminal Hexa-His-fusion protein (“the enzyme”), rather than using the N-terminal GST-fusion protein. The assay conditions were the same as above but with 1 μM ATP and 8 ng/reaction of the enzyme.

Assay [2] deals with T2, P397Y-FAK (Homo sapiens, UniProt Q05397).
T2 construct: endogenous in cells; host or cells: MDA-231-LNA
In words: P397Y-FAK inhibition MSD platform cellular biomarker assay. The class given is cell-based. Particulars: MDA-231-LNA cells, 1 hour compound. Here is the method:
96-well plates (cat#MA6000, Meso Scale Discovery) are coated with 30 μL/well of mouse monoclonal FAK antibody [63D5] (cat#ab72140, Abcam) pre-diluted in PBS to a concentration of 1 mg/mL. The plates are sealed with adhesive film and incubated for 16 hours at 4° C. The antibody is then flicked out of the plates and 150 μL of 3% [w/v] Blocker A (cat#R93AA-1, Meso Scale Discovery) is added. The plates are resealed with adhesive film and incubated at room temperature on a shaker set at medium speed for 2 hours. The plates are then washed three times with a solution containing 50 mM Tris-HCl pH 7.5, 0.15 M NaCl and 0.02% Tween-20, before cell lysate addition described below.
Cells are split 1:2 into T150 cell culture flasks 2 days prior to compound treatment. On the day prior to compound treatment, 200 μL media containing 20,000 cells is seeded into all wells of white, clear-bottom, TC treated, pclear, 96-well microtitre plates (cat#655098, Greiner Bio-One), and the plates are incubated at 37° C. and 5% CO2 for […]. 1 pUwell of compound is then added from dilution series prepared in DMSO. Negative control wells receive the same volume of DMSO without compounds, and positive control wells receive 2 μM of a control compound in the same volume of DMSO. Cells are treated for 1 hour at 37° C. and 5% CO2. The media/compounds are then flicked off and 55 pUwell of ice-cold complete lysis buffer is added. Complete lysis buffer is prepared by adding 1 tablet PhosSTOP complete phosphatase inhibitor (cat#04906837001, Roche) and 1 tablet Complete, Mini, EDTA-free, protease inhibitor (cat#04693159001, Roche) per 10 mL of incomplete lysis buffer (150 mM NaCl, 20 mM Tris-HCl pH 7.5, 1 mM EDTA, 1 mM EGTA, 1% Triton-X 100). Plates are incubated on ice for 30 minutes, with 30 seconds high speed plate shaking every 5 minutes. 40 μL/well of cell lysate is transferred to the coated, blocked and washed 96-well microtitre plates described above. The 96-well plates are sealed with adhesive film and incubated for 16 hours at 4° C. The plates are then washed three times with a solution containing 50 mM Tris-HCl pH 7.5, 0.15 M NaCl and 0.02% Tween-20 and tapped dry. 25 μL/well of detection solution (1% [w/v] Blocker A (cat#R93AA-1, Meso Scale Discovery) in 50 mM Tris-HCl pH 7.5, 0.15 M NaCl and 0.02% Tween-20, with 1:600 rabbit polyclonal FAK phospho Y397 antibody (cat#ab39967, Abcam), 1:1000 anti-rabbit sulfo-tag antibody (cat#R32AB-1 Meso Scale Discovery) and 1:40 reconstituted Blocker D-M (cat#D609-0100, Rockland Immunochemicals for Research)) is added, and the plates resealed with adhesive film and incubated for 1 hour at room temperature on a plate shaker set to medium speed. Plates are then washed three times with a solution containing 50 mM Tris-HCl pH 7.5, 0.15 M NaCl and 0.02% Tween-20 and tapped dry. 150 μL/well of Read Buffer T+Surfactant (cat#R92TC-1, Meso Scale Discovery) is then added, and pFAK-397 levels quantified using a Meso Scale Discovery SECTOR Imager 6000 instrument.

Bounds are passed on as bounds.

T1 sequence (P35916 798-1298 isoform P35916-1): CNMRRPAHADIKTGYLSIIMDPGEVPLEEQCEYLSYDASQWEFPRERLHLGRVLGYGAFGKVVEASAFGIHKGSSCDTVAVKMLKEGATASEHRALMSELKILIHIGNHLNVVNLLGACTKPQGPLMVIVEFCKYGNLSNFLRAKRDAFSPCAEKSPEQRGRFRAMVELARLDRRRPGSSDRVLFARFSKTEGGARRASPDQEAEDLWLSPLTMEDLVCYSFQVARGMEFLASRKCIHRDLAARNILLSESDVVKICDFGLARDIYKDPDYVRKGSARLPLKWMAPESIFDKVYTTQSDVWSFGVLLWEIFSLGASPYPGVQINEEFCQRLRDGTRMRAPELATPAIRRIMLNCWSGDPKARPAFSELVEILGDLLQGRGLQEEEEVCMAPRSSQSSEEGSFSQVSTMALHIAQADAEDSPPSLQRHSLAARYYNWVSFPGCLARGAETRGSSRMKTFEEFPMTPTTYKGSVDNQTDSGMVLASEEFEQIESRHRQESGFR
T2 sequence (Q05397 2-1052 limits assumed, stated change not applied): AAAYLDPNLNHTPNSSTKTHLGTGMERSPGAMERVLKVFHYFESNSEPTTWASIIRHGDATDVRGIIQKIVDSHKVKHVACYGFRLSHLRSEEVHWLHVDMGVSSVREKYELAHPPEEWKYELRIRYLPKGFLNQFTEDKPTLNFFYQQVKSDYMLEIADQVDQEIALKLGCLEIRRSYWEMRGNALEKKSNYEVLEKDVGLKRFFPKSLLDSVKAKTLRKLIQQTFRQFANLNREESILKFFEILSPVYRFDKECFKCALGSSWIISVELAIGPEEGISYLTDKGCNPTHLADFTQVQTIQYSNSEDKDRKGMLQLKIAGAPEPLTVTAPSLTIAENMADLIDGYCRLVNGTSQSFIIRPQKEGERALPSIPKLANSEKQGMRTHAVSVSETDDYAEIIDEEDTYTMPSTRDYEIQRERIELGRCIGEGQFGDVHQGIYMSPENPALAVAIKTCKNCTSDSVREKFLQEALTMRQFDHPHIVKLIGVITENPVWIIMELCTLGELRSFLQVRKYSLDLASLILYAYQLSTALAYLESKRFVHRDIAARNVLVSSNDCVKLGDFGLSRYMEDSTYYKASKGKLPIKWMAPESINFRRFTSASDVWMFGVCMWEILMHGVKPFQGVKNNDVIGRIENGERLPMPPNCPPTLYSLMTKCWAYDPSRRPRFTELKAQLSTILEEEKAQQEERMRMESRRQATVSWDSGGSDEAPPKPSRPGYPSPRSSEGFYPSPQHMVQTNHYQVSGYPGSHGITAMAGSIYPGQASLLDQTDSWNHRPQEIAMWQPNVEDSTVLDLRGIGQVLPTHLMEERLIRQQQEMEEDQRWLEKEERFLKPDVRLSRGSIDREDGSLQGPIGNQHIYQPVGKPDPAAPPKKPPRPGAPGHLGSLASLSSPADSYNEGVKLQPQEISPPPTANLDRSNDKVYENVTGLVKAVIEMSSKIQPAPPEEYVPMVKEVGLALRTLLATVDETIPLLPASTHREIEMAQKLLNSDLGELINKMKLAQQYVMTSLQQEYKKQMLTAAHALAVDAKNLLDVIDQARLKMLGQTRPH

Molecule `Cc1cnc(Nc2ccc(N3CCNCC3)cc2)nc1CCc1ccccc1CC(N)=O` [Compound 2, 2-(2-(2-(5-methyl-2-((4-(piperazin-1-yl)phenyl)amino)pyrimidin-4-yl)ethyl)phenyl)acetamide] gave a half-inhibitory concentration (IC50) in assay [1] of 39 nM.
Consider `NCc1ccc(Nc2ncc(C(F)(F)F)c(CCc3ccccc3CC(N)=O)n2)cc1` [Compound 3, 2-(2-(2-(2-((4-(Aminomethyl)phenyl)amino)-5-(trifluoromethyl)pyrimidin-4-yl)ethyl)phenyl)acetamide], for which the half-maximal inhibitory concentration (IC50) in assay [2] was 62 nM; in assay [1], 97 nM.
In assay [1], `Cc1cnc(Nc2ccc(C3CCNCC3)nc2)nc1CCc1ccccc1CC(N)=O` [Compound 4, 2-(2-(2-(5-methyl-2-((6-(piperidin-4-yl)pyridin-3-yl)amino)pyrimidin-4-yl)ethyl)phenyl)acetamide] registered an IC50 of 35 nM.
With `Cc1cnc(Nc2ccc(C3CCN(C)CC3)nc2)nc1CCc1ccccc1CC(N)=O` [Compound 5, 2-(2-(2-(5-methyl-2-((6-(1-methylpiperidin-4-yl)pyridin-3-yl)amino)pyrimidin-4-yl)ethyl)phenyl)acetamide], the IC50 in assay [2] is > 2000 nM; in assay [1], 28 nM.
Regarding `NC(=O)Cc1ccccc1CCc1nc(Nc2ccc(C(=O)N3CCNCC3)cc2)ncc1C(F)(F)F` [Compound 6, 2-(2-(2-(2-((4-(piperazine-1-carbonyl)phenyl)amino)-5-(trifluoromethyl)pyrimidin-4-yl)ethyl)phenyl)acetamide], the half-inhibitory concentration (IC50) in assay [2] was 940 nM; in assay [1], 23 nM.
For `Cc1cc(Nc2ncc(C(F)(F)F)c(CCc3ccccc3CC(N)=O)n2)ccc1C1CCNCC1` [Compound 11, 2-(2-(2-(2-((3-methyl-4-(piperidin-4-yl)phenyl)amino)-5-(trifluoromethyl)pyrimidin-4-yl)ethyl)phenyl)acetamide], the half-maximal inhibitory concentration (IC50) in assay [2] amounted to 16 nM; in assay [1] it was 26 nM.
Consider `Cc1cc(Nc2ncc(C(F)(F)F)c(CCc3ccccc3CC(N)=O)n2)ccc1C1CCN(C)CC1` [Compound 12, 2-(2-(2-(2-((3-methyl-4-(1-methylpiperidin-4-yl)phenyl)amino)-5-(trifluoromethyl)pyrimidin-4-yl)ethyl)phenyl)acetamide], for which the IC50 is 30 nM in assay [2] and 20 nM in assay [1].
The like results for `Cc1cnc(Nc2ccc(C3CCNCC3)cc2)nc1CCc1ccccc1CC(N)=O` [Compound 16, 2-(2-(2-(5-methyl-2-((4-(piperidin-4-yl)phenyl)amino)pyrimidin-4-yl)ethyl)phenyl)acetamide] were, in that order, > 2000 nM and 22 nM.
For `CC(N)c1ccc(Nc2ncc(C(F)(F)F)c(CCc3ccccc3CC(N)=O)n2)cc1` (stereo not drawn) [Compound 18, 2-(2-(2-(2-(4-(1-aminoethyl)phenylamino)-5-(trifluoromethyl)pyrimidin-4-yl)ethyl)phenyl)acetamide] the same measures were 25 nM and 46 nM.
For `Cc1cnc(Nc2cccnc2)nc1CCc1ccccc1CC(N)=O` [Compound 24, 2-(2-(2-(5-methyl-2-(pyridin-3-ylamino)pyrimidin-4-yl)ethyl)phenyl)acetamide], the IC50 in assay [2] was > 2000 nM; in assay [1] it was 34 nM.
For `Cc1cnc(Nc2ccc(OC3CCNCC3)cc2)nc1CCc1ccccc1CC(N)=O` [Compound 26, 2-(2-(2-(5-methyl-2-((4-(piperidin-4-yloxy)phenyl)amino)pyrimidin-4-yl)ethyl)phenyl)acetamide] the same measures were > 2000 nM and 24 nM.
The like results for `Cc1cnc(Nc2cnn(C)c2)nc1CCc1ccccc1CC(N)=O` [Compound 28, 2-(2-(2-(5-methyl-2-((1-methyl-^1H-pyrazol-4-yl)amino)pyrimidin-4-yl)ethyl)phenyl)acetamide] were, in that order, > 2000 nM and 24 nM.
The like results for `Cc1cnc(Nc2ccc(C3(N)COC3)cc2)nc1CCc1ccccc1CC(N)=O` [Compound 31, 2-(2-(2-(2-(4-(3-aminooxetan-3-yl)phenylamino)-5-methylpyrimidin-4-yl)ethyl)phenyl)acetamide] were, in that order, > 2000 nM and 23 nM.
On to `Cc1cnc(Nc2cnn(C3CCNCC3)c2)nc1CCc1ccccc1CC(N)=O` [Compound 33, 2-(2-(2-(5-Methyl-2-((1-(piperidin-4-yl)-^1H-pyrazol-4-yl)amino)pyrimidin-4-yl)ethyl)phenyl)acetamide], for which the 50% inhibitory concentration (IC50) is > 2000 nM in assay [2] and 28 nM in assay [1].
In turn, `CC(N)c1ccc(Nc2ncc(Cl)c(CCc3ccccc3CC(N)=O)n2)cc1` (stereo not drawn) [Compound 37, 2-(2-(2-(2-(4-(1-aminoethyl)phenylamino)-5-chloropyrimidin-4-yl)ethyl)phenyl)acetamide] registered a half-maximal inhibitory concentration (IC50) in assay [1] of 12 nM.

A word on the IC50: it is the point on the concentration scale where inhibition reaches its midpoint.
